Laboratory results: ChEMBL document CHEMBL1201862, “PubChem BioAssay data set” (2004)
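Exposure lasted 48 hours, with cells grown in 96-well plates and compounds tested at five concentrations. GI50 marks 50% less growth.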 Active and inactive are the calls of the source. Cut-off read from the data, not from the text of the source: active = GI50 up to about 1.1 µM and inactive = higher.

Key:
Assay in all cases: inhibition of tumour cell growth, NCI panel, 48 h
RPMI-8226 = test system: RPMI-8226
HCC 2998 = test system: HCC 2998
T47D = test system: T47D
BT-549 = test system: BT-549
SK-MEL-28 = test system: SK-MEL-28
SNB-19 = test system: SNB-19
ACHN = test system: ACHN
CAKI-1 = test system: CAKI-1
UO-31 = test system: UO-31
A498 = test system: A498
M14 = test system: M14
KM12 = test system: KM12
IGROV-1 = test system: IGROV-1
NCI/ADR-RES = test system: NCI/ADR-RES
SK-MEL-5 = test system: SK-MEL-5
CCRF-CEM = test system: CCRF-CEM
NCI-H226 = test system: NCI-H226
K562 = test system: K562
MDA-N = test system: MDA-N
SK-MEL-2 = test system: SK-MEL-2

SMILES	GI50 (RPMI-8226)	GI50 (HCC 2998)	GI50 (T47D)	GI50 (BT-549)	GI50 (SK-MEL-28)	GI50 (SNB-19)	GI50 (ACHN)	GI50 (CAKI-1)	GI50 (UO-31)	GI50 (A498)	GI50 (M14)	GI50 (KM12)	GI50 (IGROV-1)	GI50 (NCI/ADR-RES)	GI50 (SK-MEL-5)	GI50 (CCRF-CEM)	GI50 (NCI-H226)	GI50 (K562)	GI50 (MDA-N)	GI50 (SK-MEL-2)
COc1ccc2c(c1)c(=O)c1c(NCCN(C)C)ccc3c(=O)n(CCN(C)C)c(=O)n2c31	0.0323 µM (active)	0.0247 µM (active)	0.372 µM (active)	0.764 µM (active)	0.383 µM (active)	0.206 µM (active)	0.0138 µM (active)	0.0283 µM (active)	0.163 µM (active)	0.211 µM (active)	0.159 µM (active)	0.0815 µM (active)	< 0.0232 µM (active)	0.109 µM (active)	0.126 µM (active)	< 0.01 µM (active)	0.163 µM (active)	< 0.01 µM (active)	0.1 µM (active)	0.182 µM (active)
O=C(c1ccccc1)c1ccc(C(c2c(O)c3ccccc3oc2=O)c2c(O)c3ccccc3oc2=O)cc1	18.5 µM (inactive)	21 µM (inactive)	34.2 µM (inactive)	22.5 µM (inactive)	28.8 µM (inactive)	19.6 µM (inactive)	20 µM (inactive)	16.8 µM (inactive)	14.8 µM (inactive)	24.5 µM (inactive)	24.7 µM (inactive)	18.7 µM (inactive)	23.3 µM (inactive)	22.9 µM (inactive)	24.5 µM (inactive)	27.9 µM (inactive)	23.3 µM (inactive)	33.5 µM (inactive)	28.2 µM (inactive)	28.2 µM (inactive)
COc1ccc2c(c1)C(=O)c1ccccc1C2	46.8 µM (inactive)	70.8 µM (inactive)	19.7 µM (inactive)	64.1 µM (inactive)	> 100 µM (inactive)	> 100 µM (inactive)	> 100 µM (inactive)	79.6 µM (inactive)	> 100 µM (inactive)	29.7 µM (inactive)	93.8 µM (inactive)	63 µM (inactive)	38.8 µM (inactive)	59.6 µM (inactive)	49.9 µM (inactive)	25.1 µM (inactive)	> 100 µM (inactive)	40.3 µM (inactive)	> 100 µM (inactive)	48.3 µM (inactive)
CCOC(=O)c1sc2nc(SC)nc(Nc3ccc(OC)c(OC)c3)c2c1N	1.84 µM (inactive)	60 µM (inactive)	6.08 µM (inactive)	17.7 µM (inactive)	14.7 µM (inactive)	18 µM (inactive)	13.2 µM (inactive)	89.9 µM (inactive)	22.4 µM (inactive)	4.76 µM (inactive)	42.4 µM (inactive)	> 100 µM (inactive)	> 100 µM (inactive)	3.48 µM (inactive)	3.61 µM (inactive)	1.3 µM (inactive)	7.94 µM (inactive)	> 100 µM (inactive)	> 100 µM (inactive)	19.7 µM (inactive)
CCOC(=O)C1(C(N)=O)C(=O)c2ccncc2C1=O (stereo not given)	> 100 µM (inactive)	> 100 µM (inactive)	> 100 µM (inactive)	> 100 µM (inactive)	> 100 µM (inactive)	> 100 µM (inactive)	> 100 µM (inactive)	> 100 µM (inactive)	> 100 µM (inactive)	> 100 µM (inactive)	> 100 µM (inactive)	> 100 µM (inactive)	> 100 µM (inactive)	> 100 µM (inactive)	> 100 µM (inactive)	> 100 µM (inactive)	> 100 µM (inactive)	> 100 µM (inactive)	> 100 µM (inactive)	> 100 µM (inactive)
